Results published in PubChem BioAssay AID1845200 (Molecular Pharmacology Branch, DTP, NCI, 2023).

Test system: ASPS-1 complex tumor spheroids, viability
Experiment: Anticancer human tumor ASPS-1 cell line growth inhibition;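 also: spheroids exposed to agents for 7 days after 3 days of growth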;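 as to viability, T/C: 100% = DMSO vehicle treated spheroids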
Details: for IC50: curve of first compound; for viability, T/C: stronger effect = lower value
How it was run: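 Complex spheroids of malignant cells with endothelial cells and mesenchymal stem cells; agents alone or combined, from near clinical Cmax (or 10 microM if unknown) down in half-log steps, 0.25% DMSO final.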

[1] = second compound 30 pM, first compound 0.0316 µM
[2] = second compound 30 pM, first compound 0.1 µM
[3] = second compound 30 pM, first compound 0.316 µM
[4] = second compound 30 pM, first compound 1 µM
[5] = second compound 30 pM, first compound 3.16 µM
[6] = second compound 30 pM, first compound 10 µM
[7] = second compound 94.9 pM, first compound 0.0316 µM
[8] = second compound 94.9 pM, first compound 0.1 µM
[9] = second compound 94.9 pM, first compound 0.316 µM
[10] = second compound 94.9 pM, first compound 1 µM
[11] = second compound 94.9 pM, first compound 3.16 µM
[12] = second compound 94.9 pM, first compound 10 µM
[13] = second compound 0.0003 µM, first compound 0.0316 µM
[14] = second compound 0.0003 µM, first compound 0.1 µM
[15] = second compound 0.0003 µM, first compound 0.316 µM
[16] = second compound 0.0003 µM, first compound 1 µM
[17] = second compound 0.0003 µM, first compound 3.16 µM
[18] = second compound 0.0003 µM, first compound 10 µM
[19] = second compound 0.000949 µM, first compound 0.0316 µM
[20] = second compound 0.000949 µM, first compound 0.1 µM
[21] = second compound 0.000949 µM, first compound 0.316 µM
[22] = second compound 0.000949 µM, first compound 1 µM
[23] = second compound 0.000949 µM, first compound 3.16 µM
[24] = second compound 0.000949 µM, first compound 10 µM
[25] = second compound 0.003 µM, first compound 0.0316 µM
[26] = second compound 0.003 µM, first compound 0.1 µM
[27] = second compound 0.003 µM, first compound 0.316 µM
[28] = second compound 0.003 µM, first compound 1 µM
[29] = second compound 0.003 µM, first compound 3.16 µM
[30] = second compound 0.003 µM, first compound 10 µM

SMILES | IC50 (second compound 30 pM) [nM] | IC50 (second compound 94.9 pM) [nM] | IC50 (second compound 0.0003 µM) [nM] | IC50 (second compound 0.000949 µM) [nM] | IC50 (second compound 0.003 µM) [nM] | viability, T/C [1] [%] | viability, T/C [2] [%] | viability, T/C [3] [%] | viability, T/C [4] [%] | viability, T/C [5] [%] | viability, T/C [6] [%] | viability, T/C [7] [%] | viability, T/C [8] [%] | viability, T/C [9] [%] | viability, T/C [10] [%] | viability, T/C [11] [%] | viability, T/C [12] [%] | viability, T/C [13] [%] | viability, T/C [14] [%] | viability, T/C [15] [%] | further results
CC(C)n1c(=O)n(C)c2cnc3cc(F)c(-c4ccc(OCCCN5CCCCC5)nc4)cc3c21 + COc1cc2c(cc1O)CCNC21CSC2c3c(OC(C)=O)c(C)c4c(c3C(COC1=O)N1C(O)C3Cc5cc(C)c(OC)c(O)c5C(C21)N3C)OCO4 | > 10000 | > 10000 | 868 | < 31.6 | < 31.6 | 105 | 99.5 | 98.2 | 92.5 | 83.7 | 50 | 96.1 | 84 | 78 | 72.7 | 64.4 | 48.7 | 68.7 | 62.7 | 54.7 | viability, T/C [16]: 50.4%; viability, T/C [17]: 41.6%; viability, T/C [18]: 31.1%; viability, T/C [19]: 48.7%; viability, T/C [20]: 45.6%; viability, T/C [21]: 35.3%; viability, T/C [22]: 25.1%; viability, T/C [23]: 19.9%; viability, T/C [24]: 18.1%; viability, T/C [25]: 15%; viability, T/C [26]: 5.65%; viability, T/C [27]: 1.44%; viability, T/C [28]: 0.39%; viability, T/C [29]: 0.32%; viability, T/C [30]: 0.46%
COc1ccc([C@@H](O)c2cc(-c3ncnc4cc(N5CCOCC5)ccc34)c(F)cc2Cl)nn1 + COc1cc2c(cc1O)CCNC21CSC2c3c(OC(C)=O)c(C)c4c(c3C(COC1=O)N1C(O)C3Cc5cc(C)c(OC)c(O)c5C(C21)N3C)OCO4 | 6580 | 4800 | 1520 | 379 | < 31.6 | 103 | 106 | 103 | 93.2 | 77 | 34.7 | 108 | 106 | 101 | 96.7 | 62.6 | 27.5 | 103 | 108 | 97.7 | viability, T/C [16]: 68.3%; viability, T/C [17]: 18.7%; viability, T/C [18]: 5.37%; viability, T/C [19]: 79.3%; viability, T/C [20]: 81%; viability, T/C [21]: 55%; viability, T/C [22]: 17.5%; viability, T/C [23]: 1.86%; viability, T/C [24]: 0.35%; viability, T/C [25]: 22.5%; viability, T/C [26]: 19.1%; viability, T/C [27]: 9.89%; viability, T/C [28]: 1.71%; viability, T/C [29]: 1.27%; viability, T/C [30]: 1.18%
